Assay results reported in patent US6620817B1, “[5-CHLORO-6-PHENYL-2-(4-TRIFLUOROMETHYLPHENYL)-4-PYRIMIDINYLAMINO]ACETAMIDE DERIVATIVES, PROCESS FOR PRODUCING THE SAME, MEDICINAL COMPOSITIONS CONTAINING THE SAME AND INTERMEDIATE OF THESE COMPOUNDS” (Dainippon Pharmaceutical Co., Ltd., priority 1999, dated 2003).

Legend:
[1] = test system: collagen-induced arthritis; assay: Collagen-induced arthritis inhibitory test; assay type: in vivo, mice; settings: for Inhibitory rate: score of arthritis on the 52nd day after the first immunization vs control group, male DBA/IJ mice
Experimental: Collagen-induced arthritis inhibitory test is an experimental model for rheumatoid arthritis reported by Trethan, D. E. et al. [cf. […] J. Immunol., 140, 78-83 (1988)].
Collagen-induced arthritis inhibitory test was carried out according to the method of Kakimoto, K. et al. (cf. above reference of Kakimoto, K. et al.) with slight modification. That is, solubilized bovine cartilage type II collagen (product of Elastine Products, U.S.A.) was emulsified in complete Freund's adjuvant (product of DIFCO Lab., U.S.A.) to give a homogeneous emulsion. Male mice of DBA/IJ strain (6 week-old; product of Nippon Charles River, Japan) were immunized by injection at the base of the tail with 150 μg of the emulsified collagen. Twenty one days after the first immunization, arthritis was induced by a booster immunization of 150 μg of the emulsified collagen prepared in the same manner as above at the base of the tail again. A test compound was orally administered 5 days a week except for Saturdays and Sundays, which was started on the day of the first immunization and continued until the termination of the experiment. Mice were daily observed since the 8th day after the booster immunization for the onset of arthritis, and an arthritic score was derived by grading the severity of involvement of each paw five scales according to the method of Wood, F. D. et al. [cf. Int. Arch. Allergy Appl. The severity of arthritis was estimated by the sum of the scores of all 4 paws of both forepaws and both hind paws, and the onset of the disease was considered when score 1 was observed.
The inhibitory rate was obtained by comparing the score of arthritis on the 52nd day after the first immunization with that of the control group.

male mice of ICR strain = assay: Subacute toxicity test (repetitive oral administration for 14 days); assay type: in vivo; design: key to ALT (alanine aminotransferase), significance vs solvent-treated control: −: no significant differences (Student's t-test); +: p < 0.05 (Student's t-test); ++: p < 0.01 (Student's t-test); settings: for ALT (alanine aminotransferase) vs vehicle-treated control group (in words) / AST (aspartate aminotransferase) vs vehicle-treated control group / BUN (blood urea nitrogen) vs vehicle-treated control group / wet-weights of various organs such as liver, spleen vs vehicle-treated control group / change in the body weight during the test vs vehicle-treated control group: 14 days oral; for ALT (alanine aminotransferase) vs vehicle-treated control group (in words) / AST (aspartate aminotransferase) vs vehicle-treated control group: parameter for liver dysfunction; for BUN (blood urea nitrogen) vs vehicle-treated control group: parameter for renal dysfunction; for wet-weights of various organs such as liver, spleen vs vehicle-treated control group: weight per body; for ALT (alanine aminotransferase), significance vs solvent-treated control: blood plasma; for ALT (alanine aminotransferase), significance vs solvent-treated control / Other remarks: male ICR mice; for change in the body weight during the test vs vehicle-treated control group: even at a high dose of 300 mg/kg; for Other remarks: remarks observed during the 14-day oral test
Experimental: Subacute toxicity test was carried out by repetitive administration of a test compound to mice for 14 days. That is, a test compound was orally administered to male mice of ICR strain once a day for 14 days. On the day following the final administration, the mice were anesthetized with Nembutal, and the blood was taken out therefrom, and further various organs were taken out. The wet-weight of each organ was determined, and was converted into a weight per body, and then compared. The blood plasma was subjected to various biochemical tests, mainly to tests for parameters for liver function and renal function. The results of these tests were statistically compared with those in the solvent-treated control group. The data of the biochemical tests, for example, ALT (alanine aminotransferase) as a parameter for liver dysfunction and other remarks observed during the test (see the column of “other remarks” in Table 3) are shown in Table 3.

[2] = dose 100 mg/kg orally once a day for 14 days
[3] = dose 200 mg/kg orally once a day for 14 days
[4] = dose 300 mg/kg orally once a day for 14 days

| SMILES | Inhibitory rate ([1]; dose 0.3 mg/kg orally) | Inhibitory rate ([1]; dose 10 mg/kg orally) | ALT (alanine aminotransferase) vs vehicle-treated control group (in words) (male mice of ICR strain) | AST (aspartate aminotransferase) vs vehicle-treated control group (male mice of ICR strain) | BUN (blood urea nitrogen) vs vehicle-treated control group (male mice of ICR strain) | wet-weights of various organs such as liver, spleen vs vehicle-treated control group (male mice of ICR strain) | ALT (alanine aminotransferase), significance vs solvent-treated control (male mice of ICR strain; [2]) | ALT (alanine aminotransferase), significance vs solvent-treated control (male mice of ICR strain; [3]) | ALT (alanine aminotransferase), significance vs solvent-treated control (male mice of ICR strain; [4]) | change in the body weight during the test vs vehicle-treated control group (male mice of ICR strain) | Other remarks (male mice of ICR strain) | inhibitory effects (in words) ([1]; dose 3 mg/kg) | Inhibitory rate ([1]; dose 3 mg/kg orally) | effect on the above parameters (body weight, organ weights, ALT, AST, BUN) (male mice of ICR strain; dose 100 mg/kg) | effect on the liver (male mice of ICR strain; high dose of 300 mg/kg) | Inhibitory rate ([1]; dose 1 mg/kg orally) | anti-rheumatoid activity compared with Examples 1 and 2 ([1]; dose 3 mg/kg or less) | anti-rheumatoid activity compared with Examples 1 and 2 ([1]; dose 10 mg/kg) | side effect on liver and kidney (male mice of ICR strain; dose 100 mg/kg) |
| --- | --- | --- | --- | --- | --- | --- | --- | --- | --- | --- | --- | --- | --- | --- | --- | --- | --- | --- | --- |
| CN(C)C(=O)CNc1nc(-c2ccc(C(F)(F)F)cc2)nc(-c2ccccc2)c1Cl [Example 1, 2-[5-chloro-6-phenyl-2-(4-trifluoromethylphenyl)-4-pyrimidinylamino]-N,N-dimethylacetamide] | 20.0% | 96.0% | not significantly different | not significantly different | not significantly different | not significantly different | − | − | − | not significantly different | no particular remark |  |  |  |  |  |  |  |  |
| CN(C(=O)CNc1nc(-c2ccc(C(F)(F)F)cc2)nc(-c2ccccc2)c1Cl)C1CC1 [Example 2, 2-[5-chloro-6-phenyl-2-(4-trifluoromethylphenyl)-4-pyrimidinylamino]-N-cyclopropyl-N-methylacetamide] | 29.1% | 96.6% | not significantly different | not significantly different | not significantly different | not significantly different | − | − | − | not significantly different | no particular remark |  |  |  |  |  |  |  |  |
| CCCN(CCC)C(=O)CNc1nc(-c2ccc(C(F)(F)F)cc2)nc(C)c1C [Reference Example A, 2-[5,6-dimethyl-2-(4-trifluoro-methylphenyl)-4-pyrimidinylamino]-N,N-dipropylacetamide, reference compound] |  | 73.2% |  |  |  |  | − | − | + (p < 0.05 (Student's t-test)) |  | no particular remark | hardly showed any inhibitory effects | 15.5% | did not affect | did affect the liver in some degree |  |  |  |  |
| Cc1nc(-c2ccc(C(F)(F)F)cc2)nc(NCC(=O)N(C)C)c1C [Reference Example B, 2-[5,6-dimethyl-2-(4-trifluoro-methylphenyl)-4-pyrimidinylamino]-N,N-dimethylacetamide] | 0.0% | 97.6% |  |  |  |  | ++ (p < 0.01 (Student's t-test)) |  |  |  | peritoneal fluid, renal damage |  | 63.9% |  |  | 41.8% | weaker than the compounds of Example 1 and Example 2 | as potent as the compounds of Example 1 and Example 2 | potent side effect on liver and kidney |
